Measured values: patent US9512107B2, “Therapeutically active compositions and their methods of use” (Agios Pharmaceuticals, Inc., priority 2012, dated 2016)
Residue numbers refer to the chain shown, from its start. Where two headings read alike, the source gives them in different places.

Assays:
IDH2 R140Q = molecular target: T1, IDH2 R140Q (Homo sapiens, UniProt P48735, R140Q); experiment: IDH2 R140Q enzymatic assay (cofactor depletion, similar format); type: biochemical; conditions: read-out: Enz R140Q
T1 sequence (P48735 40-452 R140Q): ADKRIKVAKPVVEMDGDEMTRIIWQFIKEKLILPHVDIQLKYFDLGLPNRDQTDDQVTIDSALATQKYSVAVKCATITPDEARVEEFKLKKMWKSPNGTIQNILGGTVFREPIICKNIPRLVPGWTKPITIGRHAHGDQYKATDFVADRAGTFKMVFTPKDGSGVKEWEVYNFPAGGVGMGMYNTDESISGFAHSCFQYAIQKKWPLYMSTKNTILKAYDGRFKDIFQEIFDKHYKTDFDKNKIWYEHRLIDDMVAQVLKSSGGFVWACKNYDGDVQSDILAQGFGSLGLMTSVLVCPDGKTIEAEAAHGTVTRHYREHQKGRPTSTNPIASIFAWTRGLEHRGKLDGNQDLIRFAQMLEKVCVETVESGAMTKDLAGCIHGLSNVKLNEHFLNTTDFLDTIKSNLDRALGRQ

IDH2 R172K = molecular target: T2, IDH2 R172K (Homo sapiens, UniProt P48735, R172K); experiment: IDH2 R172K enzymatic assay (NADPH cofactor depletion, diaphorase/resazurin readout); type: biochemical; conditions: read-out: Enz R172K
T2 sequence (P48735 40-452 R172K): T1 sequence (P48735 40-452 R140Q) with Q101R, R133K
Outline: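 Compound was preincubated with IDH2 R172K for 1 h at room temperature, then the reaction was started with substrate mix containing 50 μM NADPH and 6.3 mM α-KG. After another 1 h at room temperature, stop mix with diaphorase and resazurin consumed the remaining NADPH, and resorufin fluorescence was read.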

[1] = system: U87MG pLVX-IDH2 R140Q-neo cells; experiment: U87MG pLVX-IDH2 R140Q-neo cell based assay, 2-HG in media by LC-MS at 48 hours
Outline: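 U87MG cells stably expressing IDH2 R140Q were seeded overnight, then exposed to compound at 0.2% final DMSO at 37 °C, 5% CO2. 2-HG in the medium was quantified by LC-MS at 48 h. Growth inhibition was read by CellTiter-Glo luminescence at 72 h.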

Compound | IC50 (IDH2 R140Q) | IC50 (IDH2 R172K) | IC50 ([1]; Homo sapiens, U-87 MG) | IC50 [1] | Cell R140Q [1]
CC(C)Nc1nc(Nc2cncc(F)c2)nc(-c2c(F)cccc2F)n1 [Compound 474, 6-(2,6-Difluoro-phenyl)-N-(5-fluoro-pyridin-3-yl)-N′-isopropyl-[1,3,5]triazine-2,4-diamine] | 100 to 1000 nM | < 100 nM | < 100 nM |  | 
CC(C)Nc1nc(Nc2ccc(F)nc2)nc(-c2cccc(N)n2)n1 [Compound 462, 6-(6-Amino-pyridin-2-yl)-N-(6-fluoro-pyridin-3-yl)-N′-isopropyl-[1,3,5]triazine-2,4-diamine] | 100 to 1000 nM | 100 to 1000 nM | 100 to 1000 nM |  | 
COC(=O)Nc1cccc(-c2nc(Nc3ccnc(C(F)(F)F)c3)nc(NC(C)C)n2)n1 [Compound 679, Methyl(6-(4-(isopropylamino)-6-((2-(trifluoromethyl)pyridin-4-yl)amino)-1,3,5-triazin-2-yl)pyridin-2-yl)carbamate] | 100 to 1000 nM | > 10000 nM | 100 to 1000 nM |  | 
CC(O)CNc1nc(Nc2ccccc2)nc(-c2ccccc2)n1 (stereo not drawn) [Compound 240, 1-(4-phenyl-6-(phenylamino)-1,3,5-triazin-2-ylamino)propan-2-ol] | < 100 nM | 1000 to 10000 nM | 100 to 1000 nM |  | 
CC(C)Nc1nc(Nc2cncc(F)c2)nc(-c2cccc(C(F)(F)F)n2)n1 [Compound 503, N-(5-Fluoro-pyridin-3-yl)-N′-isopropyl-6-(6-trifluoromethyl-pyridin-2-yl)-[1,3,5]triazine-2,4-diamine] | 1000 to 10000 nM | < 100 nM | < 100 nM |  | 
CC(C)(CO)CNc1nc(Nc2ccnc(C(F)(F)F)c2)nc(-c2cccc(C(F)(F)F)n2)n1 [Compound 530, 2,2-Dimethyl-3-[4-(6-trifluoromethyl-pyridin-2-yl)-6-(2-trifluoromethyl-pyridin-4-ylamino)-[1,3,5]triazin-2-ylamino]-propan-1-ol] | 100 to 1000 nM | 100 to 1000 nM | < 100 nM |  | 
CC(C)Nc1nc(Nc2cccc(S(C)(=O)=O)c2)nc(-c2nc(F)ccc2F)n1 [Compound 454] | 100 to 1000 nM | 1000 to 10000 nM | 100 to 1000 nM |  | 
CC(C)Nc1nc(Nc2ccc(F)nc2)nc(-c2ccccc2)n1 [Compound 196, N^2-(6-fluoropyridin-3-yl)-N^4-isopropyl-6-phenyl-1,3,5-triazine-2,4-diamine] | < 100 nM | 100 to 1000 nM | < 100 nM |  | 
CC(C)Nc1nc(Nc2ccnc(F)c2)nc(-c2nccc(C(F)(F)F)n2)n1 [Compound 538] | 1000 to 10000 nM | 100 to 1000 nM |  | < 100 nM | 
CCC(C)Nc1nc(Nc2ccncc2)nc(-c2ccccc2)n1 (stereo not drawn) [Compound 186, N^2-sec-butyl-6-phenyl-N^4-(pyridin-4-yl)-1,3,5-triazine-2,4-diamine] | < 100 nM | 100 to 1000 nM | < 100 nM |  | 
CCNS(=O)(=O)c1cccc(Nc2nc(NC(C)C)nc(-c3ccccc3)n2)c1 [Compound 204, N-ethyl-3-(4-(isopropylamino)-6-phenyl-1,3,5-triazin-2-ylamino)benzenesulfonamide] | < 100 nM | 1000 to 10000 nM | 100 to 1000 nM |  | 
CC(C)Nc1nc(Nc2ccnc(C(C)(C)C#N)c2)nc(-c2cccc(C(C)(F)F)n2)n1 [Compound 677, 2-(4-{4-[6-(1,1-Difluoro-ethyl)-pyridin-2-yl]-6-isopropylamino-[1,3,5]triazin-2-ylamino}-pyridin-2-yl)-2-methyl-propionitrile] | 100 to 1000 nM | < 100 nM | < 100 nM |  | 
CC(C)Nc1nc(Nc2ccccn2)nc(-c2ccccc2)n1 [Compound 155] | 100 to 1000 nM | > 10000 nM |  |  | No Fit
CC(C)Nc1nc(Nc2cc(F)cc(F)c2)nc(-c2nc(N)cc(C(F)(F)F)n2)n1 [Compound 481, 6-(4-amino-6-(trifluoromethyl)pyrimidin-2-yl)-N2-(3,5-difluorophenyl)-N4-isopropyl-1,3,5-triazine-2,4-diamine] | 100 to 1000 nM | < 100 nM | < 100 nM |  | 
CC(C)Nc1nc(Nc2ccccc2)nc(-c2cccc(C#N)c2)n1 [Compound 128] | 100 to 1000 nM | 1000 to 10000 nM | 1000 to 10000 nM |  | 
CC(C)Nc1nc(Nc2ccnc(C(C)(C)O)c2)nc(-c2ccccc2F)n1 [Compound 632, 2-(4-((4-(2-fluorophenyl)-6-(isopropylamino)-1,3,5-triazin-2-yl)amino)pyridin-2-yl)propan-2-ol] | 100 to 1000 nM | 100 to 1000 nM | < 100 nM |  | 
Cc1ccccc1Nc1nc(NC(C)C)nc(-c2ccccc2)n1 [Compound 147] | 100 to 1000 nM | 1000 to 10000 nM | 100 to 1000 nM |  | 
CC1(CNc2nc(Nc3ccncc3)nc(-c3ccccc3)n2)CCCO1 (stereo not drawn) [Compound 221, N^2-((2-methyltetrahydrofuran-2-yl)methyl)-6-phenyl-N^4-(pyridin-4-yl)-1,3,5-triazine-2,4-diamine] | 100 to 1000 nM | 1000 to 10000 nM | 100 to 1000 nM |  | 
FC(F)(F)c1cc(Nc2nc(NC3CC4CCC3O4)nc(-c3cccc(C(F)(F)F)n3)n2)ccn1 (stereo not drawn) [Compound 556, N-(7-Oxa-bicyclo[2.2.1]hept-2-yl)-6-(6-trifluoromethyl-pyridin-2-yl)-N′-(2-trifluoromethyl-pyridin-4-yl)-[1,3,5]triazine-2,4-diamine] | 100 to 1000 nM | < 100 nM | < 100 nM |  | 
CC1(Nc2nc(Nc3ccccc3)nc(-c3ccccc3)n2)COC1 [Compound 176, N^2-(3-methyloxetan-3-yl)-N^4,6-diphenyl-1,3,5-triazine-2,4-diamine] | < 100 nM | 100 to 1000 nM | 100 to 1000 nM |  | 
CCOc1cc(Nc2nc(NC(C)C)nc(-c3ccccc3)n2)ccn1 [Compound 200, N^2-(2-ethoxypyridin-4-yl)-N^4-isopropyl-6-phenyl-1,3,5-triazine-2,4-diamine] | < 100 nM | 100 to 1000 nM | < 100 nM |  | 
CC(C)Nc1nc(Nc2ccnc(C(F)F)c2)nc(-c2cccc(C(F)(F)F)n2)n1 [Compound 551, N-(2-Difluoromethyl-pyridin-4-yl)-N′-isopropyl-6-(6-trifluoromethyl-pyridin-2-yl)-[1,3,5]triazine-2,4-diamine] | 100 to 1000 nM | < 100 nM | < 100 nM |  | 
CC(C)Nc1nc(Nc2cc(F)cc(S(C)(=O)=O)c2)nc(-c2cccc(C(F)(F)F)n2)n1 [Compound 570, N2-(3-fluoro-5-(methylsulfonyl)phenyl)-N4-isopropyl-6-(6-(trifluoromethyl)pyridin-2-yl)-1,3,5-triazine-2,4-diamine] | 100 to 1000 nM | < 100 nM | < 100 nM |  | 
CC(C)Nc1nc(Nc2cccc(F)c2)nc(-c2cccc(N)n2)n1 [Compound 492, 6-(6-aminopyridin-2-yl)-N2-(3-fluorophenyl)-N4-isopropyl-1,3,5-triazine-2,4-diamine] | 100 to 1000 nM | < 100 nM | < 100 nM |  | 
CCC(=O)c1cc(Nc2nc(NC(C)C)nc(-c3cccc(C(F)(F)F)n3)n2)ccn1 [Compound 574, 1-{4-[4-Isopropylamino-6-(6-trifluoromethyl-pyridin-2-yl)-[1,3,5]triazin-2-ylamino]-pyridin-2-yl}-propan-1-one] | 100 to 1000 nM | < 100 nM | < 100 nM |  | 
CC(C)Nc1nc(Nc2ccc(F)nc2)nc(-c2cccc(Cl)n2)n1 [Compound 344, 6-(6-chloropyridin-2-yl)-N^2-(6-fluoropyridin-3-yl)-N^4-isopropyl-1,3,5-triazine-2,4-diamine] | 100 to 1000 nM | < 100 nM | < 100 nM |  | 
Fc1ccccc1-c1nc(Nc2cncc(C(F)(F)F)c2)nc(NC2COC2)n1 [Compound 629, 6-(2-Fluoro-phenyl)-N-oxetan-3-yl-N′-(5-trifluoromethyl-pyridin-3-yl)-[1,3,5]triazine-2,4-diamine] | < 100 nM | < 100 nM | < 100 nM |  | 
CC(C)Nc1nc(Nc2cncc(F)c2)nc(-c2ccccc2)n1 [Compound 193, N^2-(5-fluoropyridin-3-yl)-N^4-isopropyl-6-phenyl-1,3,5-triazine-2,4-diamine] | < 100 nM | 100 to 1000 nM | < 100 nM |  | 
Cc1cc(Nc2nc(NC(C)C)nc(-c3cccc(C(F)(F)F)n3)n2)cnn1 [Compound 501, N-Isopropyl-N′-(6-methyl-pyridazin-4-yl)-6-(6-trifluoromethyl-pyridin-2-yl)-[1,3,5]triazine-2,4-diamine] | 100 to 1000 nM | 1000 to 10000 nM | 100 to 1000 nM |  | 
